How the values were obtained:
[1] = test system: COLO205 colon adenocarcinoma cells (B-Raf V600E mutation); assay: COLO205 cell growth inhibition (ATPlite); assay type: cell-based; details: Homo sapiens, COLO 205, 72 h, 3 days
Summary of the method: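 Cells treated for 3 days at 37 °C, 5% CO2 with an 8-point 1:3 dilution series, top final concentration 10 μM, DMSO control. ATPlite luminescence used as a measure of cell number; IC50 from reading versus concentration.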

B-Raf V600E = B-Raf V600E (Homo sapiens (Human), UniProt P15056, V600E); assay: B-Raf V600E kinase biochemical activity assay (AlphaScreen, biotin-MEK1 substrate); details: 100 μM ATP
Summary of the method: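 IC50 was derived from AlphaScreen signal (anti-phospho-MEK1/2 antibody with streptavidin donor and Protein A acceptor beads, 3 h) across 8 compound concentrations. The kinase step ran 45 min at room temperature: 0.1 ng B-Raf V600E, 100 nM biotin-MEK1, 100 μM final ATP, pH 7.0 HEPES with MgCl2/MnCl2.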

[2] = test system: IPC-298 human melanoma cell line that expresses activated NRAS; assay: IPC-298_P-ERK cell activation assay (phosphorylated ERK, AlphaScreen); assay type: cell-based; details: 1 h, IPC-298 cells, P-ERK activation, compound for one hour
Protocol: B9 is a squamous cell carcinoma cell line expressing activated HRAS that was isolated from a DMBA/TPA-induced mouse model of skin carcinogenesis (Stoler, et al. The Journal of Cell Biology, 1993, 122(5), 1103-17). IPC-298 is a human melanoma cell line that expresses activated NRAS (Aubert, et al. International Journal of Cancer, 1993, 54(5), 784-92). To determine whether compounds induce phosphorylated ERK and MEK, cells are plated in a 96-well dish and treated with an 8-point titration of compound for one hour at 37° C. The media is then removed and the cells are incubated with lysis buffer containing protease and phosphatase inhibitors. Phosphorylated ERK and MEK in the resulting lysates is detected using AlphaScreen™ technology. To detect phosphorylated ERK, cell lysates are incubated with streptavidin-coated donor beads, anti-mouse IgG acceptor beads, a biotinylated anti-ERK1/2 rabbit antibody, and a mouse antibody that recognizes ERK1/2 only when it is phosphorylated on Thr202 and Tyr204. The biotinylated ERK1/2 antibody will bind to both the streptavidin-coated donor beads and to ERK1/2 (regardless of its phosphorylation state), and the phospho-ERK1/2 antibody will bind to the acceptor beads and to ERK1/2 that is phosphorylated at Thr202/Tyr204. Excitation of the beads with laser light at 680 nm produces singlet oxygen, which is rapidly quenched unless the beads are in close proximity. When ERK is phosphorylated, both antibodies can bind the same protein, bringing the donor and acceptor beads into close proximity, producing a signal that can be measured at 580 nm. MEK phosphorylation is detected using a similar approach, only with antibodies directed against total MEK1/2 and MEK1/2 that is phosphorylated at Ser217 and Ser221.

Sequence of B-Raf V600E (P15056 whole entry V600E): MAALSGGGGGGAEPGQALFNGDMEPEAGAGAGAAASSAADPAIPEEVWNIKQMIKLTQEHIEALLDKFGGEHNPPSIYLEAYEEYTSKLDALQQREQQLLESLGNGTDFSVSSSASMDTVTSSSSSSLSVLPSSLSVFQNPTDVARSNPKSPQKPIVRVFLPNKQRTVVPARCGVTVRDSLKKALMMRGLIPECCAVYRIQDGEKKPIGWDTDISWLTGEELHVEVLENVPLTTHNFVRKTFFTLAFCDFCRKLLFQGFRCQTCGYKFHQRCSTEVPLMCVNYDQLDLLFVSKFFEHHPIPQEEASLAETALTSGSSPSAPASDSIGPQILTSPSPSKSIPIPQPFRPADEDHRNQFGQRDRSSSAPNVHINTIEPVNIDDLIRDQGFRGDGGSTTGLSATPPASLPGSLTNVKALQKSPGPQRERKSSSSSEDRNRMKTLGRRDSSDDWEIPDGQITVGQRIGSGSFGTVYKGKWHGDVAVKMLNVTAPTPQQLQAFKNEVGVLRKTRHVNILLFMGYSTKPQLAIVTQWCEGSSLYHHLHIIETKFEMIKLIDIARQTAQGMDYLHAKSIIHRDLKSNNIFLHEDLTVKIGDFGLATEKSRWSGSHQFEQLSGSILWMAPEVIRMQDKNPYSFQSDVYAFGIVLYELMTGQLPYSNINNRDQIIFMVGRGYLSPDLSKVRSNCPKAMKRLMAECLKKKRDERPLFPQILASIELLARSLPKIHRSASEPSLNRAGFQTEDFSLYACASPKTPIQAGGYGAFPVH

Row | Compound | IC50 [1] [µM] | IC50 (B-Raf V600E) [µM] | EC50 [2] [µM]
1 | Cc1cnc2[nH]cc(C(=O)c3cccc(NS(=O)(=O)N4CCCC4)c3F)c2c1 [Compound P-0023, N-[2-fluoro-3-(5-methyl-1H-pyrrolo[2,3-b]pyridine-3-carbonyl)phenyl]pyrrolidine-1-sulfonamide] | > 1 | < 0.1 | > 10
2 | CCN(C)S(=O)(=O)Nc1cccc(C(=O)c2c[nH]c3ncc(Br)cc23)c1F [Compound P-0038, 5-bromo-3-[3-[[ethyl(methyl)sulfamoyl]amino]-2-fluoro-benzoyl]-1H-pyrrolo[2,3-b]pyridine] | > 1 | < 0.1 | > 10
3 | COc1cc(-c2cnc3[nH]cc(C(=O)c4cccc(NS(=O)(=O)N(C)C)c4F)c3c2)ccc1C#N [Compound P-0054, 5-(4-cyano-3-methoxy-phenyl)-3-[3-(dimethylsulfamoylamino)-2-fluoro-benzoyl]-1H-pyrrolo[2,3-b]pyridine] | > 1 | < 0.1 | > 1
4 | CCN(C)S(=O)(=O)Nc1cccc(C(=O)c2c[nH]c3ncc(-c4cnc(C5CC5)nc4)cc23)c1F [Compound P-0058, 5-(2-cyclopropylpyrimidin-5-yl)-3-[3-[[ethyl(methyl)sulfamoyl]amino]-2-fluoro-benzoyl]-1H-pyrrolo[2,3-b]pyridine] | < 1 | < 0.1 | > 10
5 | CCN(C)S(=O)(=O)Nc1cccc(C(=O)c2c[nH]c3ncc(-c4ccc(C(F)(F)F)nc4)cc23)c1F [Compound P-0059, 3-[3-[[ethyl(methyl)sulfamoyl]amino]-2-fluoro-benzoyl]-5-[6-(trifluoromethyl)-3-pyridyl]-1H-pyrrolo[2,3-b]pyridine] | < 1 | < 0.1 | > 10
6 | CCN(C)S(=O)(=O)Nc1cccc(C(=O)c2c[nH]c3ncc(-c4ccc(C#N)c(OC)c4)cc23)c1F [Compound P-0060, 5-(4-cyano-3-methoxy-phenyl)-3-[3-[[ethyl(methyl)sulfamoyl]amino]-2-fluoro-benzoyl]-1H-pyrrolo[2,3-b]pyridine] | < 1 | < 0.1 | > 2
7 | O=C(c1cccc(NS(=O)(=O)N2CCCC2)c1F)c1c[nH]c2ncc(-c3ccc(F)cc3)cc12 [Compound P-0062, N-[2-fluoro-3-[5-(4-fluorophenyl)-1H-pyrrolo[2,3-b]pyridine-3-carbonyl]phenyl]pyrrolidine-1-sulfonamide] | < 1 | < 0.1 | > 10
8 | O=C(c1cccc(NS(=O)(=O)N2CCCC2)c1F)c1c[nH]c2ncc(-c3ccccc3)cc12 [Compound P-0063, N-[2-fluoro-3-(5-phenyl-1H-pyrrolo[2,3-b]pyridine-3-carbonyl)phenyl]pyrrolidine-1-sulfonamide] | < 1 | < 0.1 | > 10
9 | CN(C)S(=O)(=O)Nc1cccc(C(=O)c2c[nH]c3ncc(-c4cnc(NC5CC5)nc4)cc23)c1F [Compound P-0064, 5-[2-(cyclopropylamino)pyrimidin-5-yl]-3-[3-(dimethylsulfamoylamino)-2-fluoro-benzoyl]-1H-pyrrolo[2,3-b]pyridine] | < 1 | < 0.1 | > 10
10 | CC(C)(O)c1nc(-c2cnc3[nH]cc(C(=O)c4c(F)ccc(NS(=O)(=O)N5CCCC5)c4F)c3c2)cs1 [Compound P-0265, N-[2,4-difluoro-3-[5-[2-(1-hydroxy-1-methyl-ethyl)thiazol-4-yl]-1H-pyrrolo[2,3-b]pyridine-3-carbonyl]phenyl]pyrrolidine-1-sulfonamide] | < 1 | < 0.1 | > 2

The remaining lines, values ahead:

Row | IC50 [1] [µM] | IC50 (B-Raf V600E) [µM] | EC50 [2] [µM] | Compound
11 | < 1 | < 0.1 | > 10 | CCCN(C)S(=O)(=O)Nc1cccc(C(=O)c2c[nH]c3ncc(-c4cnc(OC)nc4)cc23)c1F [Compound P-0040, 3-[2-fluoro-3-[[methyl(propyl)sulfamoyl]amino]benzoyl]-5-(2-methoxypyrimidin-5-yl)-1H-pyrrolo[2,3-b]pyridine]
12 | < 1 | < 0.1 | > 10 | O=C(c1cccc(NS(=O)(=O)N2CCCC2)c1F)c1c[nH]c2ncc(-c3cccnc3)cc12 [Compound P-0043, N-[2-fluoro-3-[5-(3-pyridyl)-1H-pyrrolo[2,3-b]pyridine-3-carbonyl]phenyl]pyrrolidine-1-sulfonamide]
13 | < 1 | < 0.1 | > 10 | Cc1ccc(-c2cnc3[nH]cc(C(=O)c4cccc(NS(=O)(=O)N5CCCC5)c4F)c3c2)cn1 [Compound P-0045, N-[2-fluoro-3-[5-(6-methyl-3-pyridyl)-1H-pyrrolo[2,3-b]pyridine-3-carbonyl]phenyl]pyrrolidine-1-sulfonamide]
14 | < 1 | < 0.1 | > 10 | CC(C)c1ncc(-c2cnc3[nH]cc(C(=O)c4cccc(NS(=O)(=O)N5CCCC5)c4F)c3c2)cn1 [Compound P-0047, N-[2-fluoro-3-[5-(2-isopropylpyrimidin-5-yl)-1H-pyrrolo[2,3-b]pyridine-3-carbonyl]phenyl]pyrrolidine-1-sulfonamide]
15 | < 1 | < 0.1 | > 10 | O=C(c1cccc(NS(=O)(=O)N2CCCC2)c1F)c1c[nH]c2ncc(-c3cnc(C4CC4)nc3)cc12 [Compound P-0048, N-[3-[5-(2-cyclopropylpyrimidin-5-yl)-1H-pyrrolo[2,3-b]pyridine-3-carbonyl]-2-fluoro-phenyl]pyrrolidine-1-sulfonamide]
16 | < 1 | < 0.1 | > 4 | COc1cc(-c2cnc3[nH]cc(C(=O)c4cccc(NS(=O)(=O)N5CCCC5)c4F)c3c2)ccc1C#N [Compound P-0049, N-[3-[5-(4-cyano-3-methoxy-phenyl)-1H-pyrrolo[2,3-b]pyridine-3-carbonyl]-2-fluoro-phenyl]pyrrolidine-1-sulfonamide]
17 | < 1 | < 0.1 | > 10 | N#CC1(c2ccc(-c3cnc4[nH]cc(C(=O)c5cccc(NS(=O)(=O)N6CCCC6)c5F)c4c3)cc2)CC1 [Compound P-0050, N-[3-[5-[4-(1-cyanocyclopropyl)phenyl]-1H-pyrrolo[2,3-b]pyridine-3-carbonyl]-2-fluoro-phenyl]pyrrolidine-1-sulfonamide]
18 | < 1 | < 0.1 | > 10 | CC(C)c1ncc(-c2cnc3[nH]cc(C(=O)c4cccc(NS(=O)(=O)N(C)C)c4F)c3c2)cn1 [Compound P-0051, 3-[3-(dimethylsulfamoylamino)-2-fluoro-benzoyl]-5-(2-isopropylpyrimidin-5-yl)-1H-pyrrolo[2,3-b]pyridine]
19 | < 1 | < 0.1 | > 10 | CN(C)S(=O)(=O)Nc1cccc(C(=O)c2c[nH]c3ncc(-c4cnc(C5CC5)nc4)cc23)c1F [Compound P-0052, 5-(2-cyclopropylpyrimidin-5-yl)-3-[3-(dimethylsulfamoylamino)-2-fluoro-benzoyl]-1H-pyrrolo[2,3-b]pyridine]
20 | < 1 | < 0.1 | > 10 | CN(C)S(=O)(=O)Nc1cccc(C(=O)c2c[nH]c3ncc(-c4ccc(C(F)(F)F)nc4)cc23)c1F [Compound P-0053, 3-[3-(dimethylsulfamoylamino)-2-fluoro-benzoyl]-5-[6-(trifluoromethyl)-3-pyridyl]-1H-pyrrolo[2,3-b]pyridine]
21 | < 1 | < 0.1 | > 10 | CN(C)S(=O)(=O)Nc1cccc(C(=O)c2c[nH]c3ncc(-c4ccc(C5(C#N)CC5)cc4)cc23)c1F [Compound P-0055, 5-[4-(1-cyanocyclopropyl)phenyl]-3-[3-(dimethylsulfamoylamino)-2-fluoro-benzoyl]-1H-pyrrolo[2,3-b]pyridine]
22 | < 1 | < 0.1 | > 10 | CCN(C)S(=O)(=O)Nc1cccc(C(=O)c2c[nH]c3ncc(-c4cnc(C)nc4)cc23)c1F [Compound P-0056, 3-[3-[[ethyl(methyl)sulfamoyl]amino]-2-fluoro-benzoyl]-5-(2-methylpyrimidin-5-yl)-1H-pyrrolo[2,3-b]pyridine]
23 | < 1 | < 0.1 | > 10 | CCN(C)S(=O)(=O)Nc1cccc(C(=O)c2c[nH]c3ncc(-c4cnc(C(C)C)nc4)cc23)c1F [Compound P-0057, 3-[3-[[ethyl(methyl)sulfamoyl]amino]-2-fluoro-benzoyl]-5-(2-isopropylpyrimidin-5-yl)-1H-pyrrolo[2,3-b]pyridine]
